Results on two substances are retold here after patent publication US20210063391A1, “METHODS AND SYSTEMS FOR BIOCELLULAR MARKER DETECTION AND DIAGNOSIS USING A MICROFLUIDIC PROFILING DEVICE” (The Regents of the University of Michigan, priority 2018, published 2021).

Experiment [1] deals with p65. Nature of the experiment: Inflammation signature quantification of treated PBMC lysates by microfluidic immunoblotting (p-p65). The experiment is classed as cell-based. Particulars: PBMCs treated 2 hours. The source says: (§1) An exemplary procedure for immunoblotting with a device of the present disclosure is as follows. A protein-containing sample is loaded into the wells of a gel (e.g., polyacrylamide gel) and proteins present in the sample are separated by gel electrophoresis (e.g., native gel electrophoresis, SDS-PAGE, etc.). A membrane (e.g., PVDF membrane) is placed atop the gel to allow transfer of the proteins onto the membrane. The membrane is then placed on a glass slide. A microfluidic device is placed on top of membrane, and the microfluidic channels are aligned with the protein lanes. Blocking buffer (e.g., Tween-20 and BSA) is optionally injected in each of the channels. In embodiments with a blocking step, the inlets/outlets of the channels are covered (e.g., with tape) to minimize evaporation during incubation. Antibodies are injected into the appropriate channels (e.g., different antibodies in each microchannel of a set). […]
(§2) FIGS. 2A-2B include representative graphs of inflammation signature quantification for PBMC lysates treated with LPS, Heparinase III and LPS+Heparinase III for 2 hours, according to one embodiment of the present disclosure. […]
(§3) FIGS. 3A-3B include representative graphs of inflammation signature quantification for PBMC lysates treated with Hyaluronidase (Hyal), Neuraminidase (Neu) and Spironolactone for 2 hours, according to one embodiment of the present disclosure. […]

Experiment [2] has as its system Stat1/3. Nature of the experiment: Inflammation signature quantification of treated PBMC lysates by microfluidic immunoblotting (p-Stat1, p-Stat3). It counts as cell-based.
From the text: as §1, with “set). The inlets/outlets are covered (e.g., with tape) to minimize evaporation during incubation. Following incubation (e.g., 1 hours), the microfluidic device is removed, and the membrane is transferred to a solution of an appropriate secondary antibody (e.g., the membrane is left in this solution for 1 hour, or until the membrane is completely wet). The membrane is removed from the secondary antibody solution and washed with fresh blocking buffer (e.g., 3 minutes, 5 times each). The membrane is transferred to a developing solution (e.g., 30 minutes), and the membrane is removed and rinsed with DI water. The membrane is then allowed to dry.” for “set).”
as §2, §3

For Neuraminidase, the p65 activation entry in experiment [1] (0.25 U/mL Neuraminidase vs 2 U/mL Hyaluronidase and 100 μM Spironolactone) is “increases Stat1/3 and p65 activation as compare to Hyal and Spiro”. Moreover, the Stat1/3 activation entry in experiment [2] (PBMCs treated 2 hours, 0.25 U/mL Neuraminidase vs 2 U/mL Hyaluronidase and 100 μM Spironolactone) is “increases Stat1/3 and p65 activation as compare to Hyal and Spiro”.

Regarding Heparinase III, the p65 activation entry in experiment [1] (1.5 U/mL Heparinase III and/or 1 μg/ml LPS) is listed as “increases p65 activation though similar to LPS response”. In addition, the “activation of Stat1/3” value in experiment [2] (PBMCs treated 2 hours, 1.5 U/mL Heparinase III, compared with 1 μg/ml LPS) was “leads to activation of Stat1/3, although not as much as LPS”. Moreover, in experiment [2] (PBMCs, 2 hours, Heparinase III 1.5 U/mL together with LPS 1 μg/ml), the “effect on LPS Stat1/3 response” value was “attenuates LPS Stat1/3 response when done together”.
